US20080125397A1, “2 (SULFONYL)ETHYL N,N,N',N' tetrakis(2 chloroethyl)phosphorodia” (Telik, Inc., priority 2006, published 2008)

Assays:
[1] = system: MIA PaCa-2 (pancreatic carcinoma); test: Cytotoxicity/growth inhibition assay (CellTiter-Glo), MIA PaCa-2; assay type: cell-based, human
Procedure: (§1) The human cancer cell lines DLD-1 (colorectal adenocarcinoma), LNCaP (prostate carcinoma), and MIA PaCa-2 (pancreatic carcinoma) were obtained from the American Type Culture Collection, Manassas, Va., U.S.A., and MX-1 (breast carcinoma) from the National Cancer Institute, Bethesda, Md., U.S.A. The CellTiter-Glo assay kit was obtained from Promega Corporation, Madison, Wis., U.S.A. All products were used in accordance with manufacturer's directions. All assays were conducted in triplicate wells, with dimethyl sulfoxide (DMSO) solvent control. The extent of cell growth was expressed as a percentage of the signal from the solvent control wells.
(§2) Log-phase cells were trypsinized, collected by centrifugation, and resuspended in a small volume of fresh medium, and the density of viable cells was determined following Trypan Blue staining. Cells were diluted in fresh media (3×10^3 cells/mL for DLD-1, MIA PaCa-2, and MX-1, and 6×10^3 cells/mL for LNCaP), and added at 150 μL/well to 96-well plates, and incubated for several hours to allow attachment in the case of adherent cells. […] After incubation for 10 minutes at room temperature, and the plate was read with a luminometer.

[2] = system: LNCaP (prostate carcinoma); test: Cytotoxicity/growth inhibition assay (CellTiter-Glo), LNCaP; assay type: cell-based, human
Procedure: as §1, §2

[3] = system: MX-1 tumor; test: MX-1 xenograft assay, intraperitoneal administration; assay type: in vivo, athymic nu/nu mice
Procedure: (§3) Female athymic nu/nu mice (Harlan, Indianapolis, Ind., U.S.A. or similar vendor), 6-8 weeks old (approximately 20 g), were implanted in the mammary fat pad of the right fore flank with 20-30 mg pieces of MX-1 tumor harvested from similar nu/nu mice that had previously been implanted with the MX-1 tumor. […] Groups of mice were treated with 2-({2-oxo-2-[(pyridin-3-ylmethyl)amino]ethyl}sulfonyl)ethyl N,N,N′,N′-tetrakis(2-chloroethyl)phosphorodiamidate hydrochloride at 50 and 100 mg/Kg, dissolved in aqueous 5% dextrose, by intraperitoneal injection once/day for 5 consecutive days, with vehicle control. Tumor mass, estimated from volume, was measured twice weekly; and tumor growth inhibition was measured when the average tumor mass in the control group first exceeded 2000 mg.

[4] = Solubility in water; assay type: physicochemical
[5] = system: MX-1 (breast carcinoma); test: Cytotoxicity/growth inhibition assay (CellTiter-Glo), MX-1; assay type: cell-based, human
Procedure: as §1, §2

[6] = system: MX-1 tumor; test: MX-1 xenograft assay, oral administration; assay type: in vivo, athymic nu/nu mice; conditions: 150 mg/Kg by gavage once/day for 5 consecutive days
Procedure: as §3
(§4) A study similar to that described in In vivo Example 1 was performed using oral administration of 2-({2-oxo-2-[(pyridin-3-ylmethyl)amino]ethyl}sulfonyl)ethyl N,N,N′,N′-tetrakis(2-chloroethyl)phosphorodiamidate hydrochloride. A group of mice was treated with the compound, dissolved in water, at 150 mg/Kg by gavage once/day for 5 consecutive days (with vehicle control).

[7] = system: DLD-1 (colorectal adenocarcinoma); test: Cytotoxicity/growth inhibition assay (CellTiter-Glo), DLD-1; assay type: cell-based, human
Procedure: as §1, §2

[8] = system: MX-1 tumor; test: MX-1 xenograft assay, intravenous administration; assay type: in vivo, athymic nu/nu mice
Procedure: as §3
as §4, with “intravenous” for “oral”, “aqueous 5% dextrose,” for “water,”, “40 and 80” for “150”, “tail vein injection” for “gavage”

[9] = system: MIA PaCa-2 tumor; test: MiaPaCa-2 xenograft assay, intraperitoneal administration; assay type: in vivo, athymic nu/nu mice; conditions: 100 mg/Kg intraperitoneal once/day for 7 consecutive days
Procedure: Male athymic nu/nu mice, 6-8 weeks old (approximately 20 g), were implanted subcutaneously in the right fore flank with 20-30 mg pieces of MIA PaCa-2 tumor harvested from similar nu/nu mice that had previously been implanted with the MIA PaCa-2 tumor. […] A group of mice was treated with 2-({2-oxo-2-[(pyridin-3-ylmethyl)-amino]ethyl}sulfonyl)ethyl N,N,N′,N′-tetrakis(2-chloroethyl)phosphorodiamidate hydrochloride, dissolved in aqueous 5% dextrose, at 100 mg/Kg by intraperitoneal injection once/day for 7 consecutive days, with vehicle control.

[10] = Safety at the doses tested in the in vivo examples; design: species or system athymic nu/nu mice
Procedure: as §3, §4
A study similar to that described in In vivo Example 1 was performed using intravenous administration of 2-({2-oxo-2-[(pyridin-3-ylmethyl)amino]ethyl}sulfonyl)ethyl N,N,N′,N′-tetrakis(2-chloroethyl)phosphorodiamidate hydrochloride. […]

Structure (SMILES)	IC50 ([1]; Homo sapiens, 72 h, MIA PaCa-2, 3 days culture) [µM]	IC50 ([2]; Homo sapiens, 96 h, 4 days culture) [µM]	inhibition of tumor growth compared to vehicle ([3]; 50 mg/Kg intraperitoneal once/day for 5 consecutive days) [%]	inhibition of tumor growth compared to vehicle ([3]; 100 mg/Kg intraperitoneal once/day for 5 consecutive days) [%]	solubility [4] [µg/mL]	IC50 ([5]; Homo sapiens, 72 h, MX-1, 3 days culture) [µM]	inhibition of tumor growth compared to vehicle [6] [%]	IC50 ([7]; Homo sapiens, 96 h, DLD-1, 4 days culture) [µM]	inhibition of tumor growth compared to vehicle ([8]; 40 mg/Kg tail vein injection once/day for 5 consecutive days) [%]	inhibition of tumor growth compared to vehicle ([8]; 80 mg/Kg tail vein injection once/day for 5 consecutive days) [%]	inhibition of tumor growth compared to vehicle [9] [%]	potency compared with canfosfamide ([1]; MIA PaCa-2)	potency compared with canfosfamide [2]	safety/toxicity [10]	potency compared with canfosfamide ([5]; MX-1)	potency compared with canfosfamide ([7]; DLD-1)
Cl.O=C(CS(=O)(=O)CCOP(=O)(N(CCCl)CCCl)N(CCCl)CCCl)NCc1cccnc1 [2-({2-Oxo-2-[(pyridin-3-ylmethyl)amino]ethyl}sulfonyl)ethyl N,N,N′,N′-tetrakis(2-chloroethyl)phosphorodiamidate hydrochloride]	16	67	28	95	≥ 10000	22	67	12	39	98	92	–	–	–	–	–
O=C(CS(=O)(=O)CCOP(=O)(N(CCCl)CCCl)N(CCCl)CCCl)NCc1cccnc1 [2-({2-oxo-2-[(pyridin-3-ylmethyl)amino]ethyl}sulfonyl)ethyl N,N,N′,N′-tetrakis(2-chloroethyl)phosphorodiamidate]	–	–	–	–	–	–	–	–	–	–	–	at least as potent as canfosfamide	at least as potent as canfosfamide	safe and non-toxic	at least as potent as canfosfamide	at least as potent as canfosfamide
O=C(CS(=O)(=O)CCOP(=O)(N(CCCl)CCCl)N(CCCl)CCCl)NCc1cccnc1.O=C(O)C(O)C(O)C(=O)O [tartrate salt, 2-({2-Oxo-2-[(pyridin-3-ylmethyl)amino]ethyl}sulfonyl)ethyl N,N,N′,N′-tetrakis(2-chloroethyl)phosphorodiamidate tartrate]	–	–	–	–	≥ 5000	–	–	–	–	–	–	–	–	–	–	–
